Test results from ChEMBL document CHEMBL1124789, “Angiotensin-converting enzyme inhibitors. 9. Novel [[N-(1-carboxy-3-phenylpropyl)amino]acyl]glycine derivatives with diuretic activity” (J Med Chem, 1990).
One block for each molecule: values may come before it. The source made the active and inactive calls. The rule behind the calls is not given here.

Key:
Canis familiaris [1] = test: Diuretic activity (ip) was tested in dogs; NI-No Increase; assay type: functional, organism-based; details: Canis lupus familiaris; Urine
Canis familiaris [2] = test: Maximum percent decrease in blood pressure at the dose of 1.0 mg/kg ip; assay type: functional, Canis lupus familiaris; details: route intraperitoneal
[3] = target: Angiotensin-converting enzyme (Homo sapiens) (UniProt P12821); test: […] inhibitory activity against angiotensin I converting enzyme (ACE) in dog
Angiotensin-converting enzyme (Homo sapiens), sequence (P12821 whole entry): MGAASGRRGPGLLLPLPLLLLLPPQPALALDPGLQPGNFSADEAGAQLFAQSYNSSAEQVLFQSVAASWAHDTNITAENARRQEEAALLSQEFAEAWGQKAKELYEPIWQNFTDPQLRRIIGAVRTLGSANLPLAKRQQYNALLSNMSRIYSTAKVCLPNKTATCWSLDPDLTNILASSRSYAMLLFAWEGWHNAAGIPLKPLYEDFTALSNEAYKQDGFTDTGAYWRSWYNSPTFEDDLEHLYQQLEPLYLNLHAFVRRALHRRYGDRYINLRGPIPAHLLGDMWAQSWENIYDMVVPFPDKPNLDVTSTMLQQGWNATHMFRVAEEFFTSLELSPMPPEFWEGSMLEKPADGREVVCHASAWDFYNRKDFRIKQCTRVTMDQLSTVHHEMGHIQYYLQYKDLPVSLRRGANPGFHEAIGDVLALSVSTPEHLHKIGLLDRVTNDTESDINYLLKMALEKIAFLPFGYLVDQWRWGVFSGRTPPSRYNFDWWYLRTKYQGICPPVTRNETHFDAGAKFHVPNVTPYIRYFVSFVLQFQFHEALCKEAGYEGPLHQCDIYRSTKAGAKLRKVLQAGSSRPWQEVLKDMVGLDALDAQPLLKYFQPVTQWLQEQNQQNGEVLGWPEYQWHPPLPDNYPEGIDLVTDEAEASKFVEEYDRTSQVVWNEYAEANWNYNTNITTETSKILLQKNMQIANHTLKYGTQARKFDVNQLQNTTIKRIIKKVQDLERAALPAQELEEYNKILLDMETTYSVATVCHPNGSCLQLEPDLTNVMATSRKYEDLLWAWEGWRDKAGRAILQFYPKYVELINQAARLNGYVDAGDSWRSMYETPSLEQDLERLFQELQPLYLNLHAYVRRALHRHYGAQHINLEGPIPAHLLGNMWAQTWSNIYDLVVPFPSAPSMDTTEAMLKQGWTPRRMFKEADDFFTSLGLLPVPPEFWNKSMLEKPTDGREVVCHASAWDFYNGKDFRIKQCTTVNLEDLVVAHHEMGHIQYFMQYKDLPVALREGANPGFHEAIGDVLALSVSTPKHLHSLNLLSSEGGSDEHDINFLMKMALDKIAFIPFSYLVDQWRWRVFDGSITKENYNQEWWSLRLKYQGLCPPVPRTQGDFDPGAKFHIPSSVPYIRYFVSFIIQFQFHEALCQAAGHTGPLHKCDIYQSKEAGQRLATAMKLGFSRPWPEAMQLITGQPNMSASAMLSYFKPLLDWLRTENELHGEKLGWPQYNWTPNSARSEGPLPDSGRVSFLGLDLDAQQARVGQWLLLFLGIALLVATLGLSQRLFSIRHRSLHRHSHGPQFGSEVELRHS

Canis familiaris [4] = test: Maximum percent decrease in blood pressure at the dose of 100 mg/kg ip; assay type: functional, Canis lupus familiaris; details: route intraperitoneal
Canis familiaris [5] = test: Diuretic activity (ip) was tested in dogs;ND- Natriuresis and diuresis; assay type: functional, organism-based; details: Canis lupus familiaris; Urine
Canis familiaris [6] = test: Diuretic activity (po);NI- No Increase; assay type: functional, organism-based; details: Canis lupus familiaris; Urine
[7] = target: T1, Angiotensin-converting enzyme (Rattus norvegicus) (UniProt P47820); test: In vitro inhibitory activity against Angiotensin I converting enzyme at 100 uM concentration.
T1 sequence (whole entry): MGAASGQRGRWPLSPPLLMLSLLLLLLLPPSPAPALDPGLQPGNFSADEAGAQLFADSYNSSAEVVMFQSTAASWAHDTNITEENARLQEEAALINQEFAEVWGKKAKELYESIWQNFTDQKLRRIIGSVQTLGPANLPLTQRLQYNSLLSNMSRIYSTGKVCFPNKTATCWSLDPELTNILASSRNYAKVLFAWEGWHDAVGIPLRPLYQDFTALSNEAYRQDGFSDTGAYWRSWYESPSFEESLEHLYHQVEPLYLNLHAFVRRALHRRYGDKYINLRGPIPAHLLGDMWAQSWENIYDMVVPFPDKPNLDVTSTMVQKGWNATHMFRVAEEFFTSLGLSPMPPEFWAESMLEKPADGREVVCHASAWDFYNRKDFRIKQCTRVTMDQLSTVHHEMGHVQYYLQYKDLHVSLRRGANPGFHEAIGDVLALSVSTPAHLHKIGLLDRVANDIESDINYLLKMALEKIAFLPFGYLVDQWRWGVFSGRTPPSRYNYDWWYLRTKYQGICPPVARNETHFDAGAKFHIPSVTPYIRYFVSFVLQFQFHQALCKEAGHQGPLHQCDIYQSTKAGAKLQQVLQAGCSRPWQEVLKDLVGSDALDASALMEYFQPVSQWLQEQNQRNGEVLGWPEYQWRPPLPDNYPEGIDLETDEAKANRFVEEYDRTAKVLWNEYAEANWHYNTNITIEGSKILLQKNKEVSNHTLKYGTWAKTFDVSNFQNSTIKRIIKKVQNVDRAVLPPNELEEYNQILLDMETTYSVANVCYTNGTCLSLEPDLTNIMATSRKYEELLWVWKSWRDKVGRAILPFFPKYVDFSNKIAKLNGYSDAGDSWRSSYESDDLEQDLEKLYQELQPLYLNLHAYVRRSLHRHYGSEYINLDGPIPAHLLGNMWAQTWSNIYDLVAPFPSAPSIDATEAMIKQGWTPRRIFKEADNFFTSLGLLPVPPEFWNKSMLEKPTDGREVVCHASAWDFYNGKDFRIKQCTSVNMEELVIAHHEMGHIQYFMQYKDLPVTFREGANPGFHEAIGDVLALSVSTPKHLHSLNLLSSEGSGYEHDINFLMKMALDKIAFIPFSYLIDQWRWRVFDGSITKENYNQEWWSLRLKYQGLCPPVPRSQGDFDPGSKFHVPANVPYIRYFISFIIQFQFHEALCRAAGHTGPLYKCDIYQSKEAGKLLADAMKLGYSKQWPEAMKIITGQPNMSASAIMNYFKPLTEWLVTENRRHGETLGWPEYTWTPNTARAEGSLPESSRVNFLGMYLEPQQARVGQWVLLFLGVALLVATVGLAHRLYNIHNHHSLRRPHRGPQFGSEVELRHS

[8] = target: T1, Angiotensin-converting enzyme (Rattus norvegicus); test: Inhibition of Angiotensin I converting enzyme at the dose of 30 mg/kg (po) in rat; assay type: organism-based; design: dose 30 mg/kg; scale not given: the % may be the effect or the level left
Rattus norvegicus = species: Rattus norvegicus; test: Duration of action of the compound; assay type: functional

Structure (SMILES): CCOC(=O)[C@H](CCc1ccccc1)N[C@@H](C)C(=O)N1CCC[C@H]1C(=O)O [ENALAPRIL]
- Activity (Canis familiaris [1]): inactive
- Decrease (Canis familiaris [2]): 38%

- ED50 [3]: > 100 mg/kg
Structure (SMILES): NS(=O)(=O)c1cc2c(cc1Cl)NCNS2(=O)=O [HYDROCHLOROTHIAZIDE]
- Decrease (Canis familiaris [4]): 0%
- Activity (Canis familiaris [5]): Active

- inhibition [7]: 40%
- Activity [8]: 50%
Structure (SMILES): CCOC(=O)[C@H](CCc1ccccc1)N[C@@H](C)C(=O)N(CC(=O)O)NC(=O)c1ccc(Cl)c(S(N)(=O)=O)c1.Cl
- Activity (Canis familiaris [6]): No increase
- Duration (Rattus norvegicus): < 1 h
